Values after ≈ are worked out from the molar mass of the structure shown. Non-standard residues stand in square brackets, D forms with d. Residues, ends and D or L forms follow the SMILES beside them. ξ: configuration not given here. ξLac(3-iPr) = CC(C)CC(O)C(=O)O; NMeV = CN[CH](C(=O)O)C(C)C; NMeA = CN[CH](C)C(=O)O; βAla = NCCC(=O)O
Settings: buffer; pH 7.4; 6.0 h; 150.0 µM

Compound | solubility kinetic [µg/mL]
COc1cccc(C(=O)Nc2ccc3c(N4CCOCC4)ncnc3c2)c1 | > 54
O=[S+]([O-])(Nc1nccs1)c1ccc(NCc2cc(Cl)cc(Br)c2O)cc1 | < 1
CCOc1ccccc1N1CC(c2nc3ccccc3n2CCOc2ccc(C(C)(C)C)cc2)CC1=O (configuration not stated) | < 1
CCOc1ccc(CCNC(=O)c2cc3ccccc3o2)cc1OCC | 8.88 (≈ 25.1 µM)
CCCNc1oc(-c2cccc3ccccc23)nc1C#N | < 1
COc1ccc(-c2nc(NC(C)c3ccccc3)c3ccccc3n2)cc1 (configuration not stated) | < 1
Cc1ccc(-c2ccnc(N3CCC(C(N)=O)CC3)n2)cc1 | 2.67 (≈ 9.01 µM)
O=C(Nc1nc(-c2ccccc2)cs1)c1ccncc1NS(=O)(=O)c1ccc(-c2ccccc2)cc1 | < 1
Cc1cccc(-n2nc(C)c3c2NC(=O)CSC3c2ccccc2Cl)c1 (configuration not stated) | 2.15 (≈ 5.61 µM)
Cn1ncnc1[C@H]1c2n[nH]c(=O)c3cc(F)cc(c23)N[C@@H]1c1ccc(F)cc1 | > 38
CC(C)C[C@H]1C(=O)N2CCC[C@H]2[C@]2(O)O[C@](NC(=O)[C@@H]3C=C4c5cccc6[nH]c(Br)c(c56)C[C@H]4N(C)C3)(C(C)C)C(=O)N12 | < 1
O=C(Cc1ccc(Cl)c(Cl)c1)Nc1ccc(S(=O)(=O)Nc2ccon2)cc1 | > 100
COC(=O)c1sccc1NC(=O)c1sccc1C | < 1
O=C(Nc1ccc(S(=O)(=O)Nc2nccs2)cc1)c1ccc2ccccc2c1 | < 1
Cc1cc(NS(=O)(=O)c2ccc(NC(=O)Cc3ccc(Cl)c(Cl)c3)cc2)no1 | > 65
COc1ccc(C(=O)Nc2nc(-c3ccccc3)cs2)c(OC)c1 | < 1
COc1cc2c(cc1OCCCN1CCCC1)N=C(N)C21CCC1 | > 49
CC1=C(C(=O)Nc2ccc(Cl)cc2)C(c2ccccc2C)n2ncc(C(=O)Nc3ccc(C)cc3)c2N1 (configuration not stated) | < 1
O=C(NCCc1cnc[nH]1)c1ccc(-c2ncc3cnc(-c4cccc(F)c4)cn23)cc1 | 33.7 (≈ 79.1 µM)
NC(=O)C1CCN(c2nc(-c3cc4ccccc4o3)cs2)CC1 | > 48
Oc1ccc(NCc2ccccc2OCc2ccccc2Cl)cc1 | 3.28 (≈ 9.65 µM)
CCCCCCC.CN1C(=O)CN=C(c2ccc[nH]2)c2cc(Cl)ccc21 | > 40
Cc1ccc(-c2cc(C(=O)Nc3ccc(-c4nn[nH]n4)cc3)c3ccccc3n2)cc1C | 7.58 (≈ 18 µM)
COc1ccc(-c2cn[nH]c2-c2ccc(OC)cc2)cc1 | 4.26 (≈ 15.2 µM)
O=C(COc1ccccc1)NCC(c1cccs1)S(=O)(=O)c1ccc(Cl)cc1 (configuration not stated) | 3.83 (≈ 8.79 µM)

Compound | solubility kinetic [µg/mL]
CC(C)CCNC(=O)[C@H](CC(C)C)NC(=O)[C@H]1O[C@@H]1C(=O)O | 33 (≈ 105 µM)
CSc1cc2c(s1)c1cnn(Cc3cccc(N)c3)c(=O)c1n2C | < 1
CCOC(=O)N1CCc2c(sc(NCc3sccc3C)c2C(=O)Nc2cc(Cl)ccc2OC)C1 | < 1
Cc1ccnc(NC(=O)C2CC(=O)N(c3n[nH]c4cc(Br)ccc34)C2)c1 (configuration not stated) | < 1
CC(C)(C)OC(=O)N[C@@H](Cc1ccc(O[S+](=O)([O-])c2cccc3cnccc23)cc1)C(=O)Nc1ccc(-c2ccccc2)cc1 | < 1
c1cc(OCCN2CCCCC2)cc(-c2n[nH]c3ccc(-c4ncn[nH]4)cc23)c1 | > 38
CN1CCc2cc3c(cc2C1)OCO3 | > 28
CC(C)Oc1ccccc1C(=O)Nc1nc(-c2ccccc2)cs1 | < 1
CCc1ccc(NC(=O)CSC2=Nc3ccccc3C3=NC(CC(=O)NCc4ccc5c(c4)OCO5)C(=O)N23)cc1 (configuration not stated) | 2.36 (≈ 4.15 µM)
Cc1sc(NC(=O)Cc2ccc3c(c2)OCO3)nc1-c1ccc2c(c1)CCN2 | < 1
CCC(CC)c1cc([C@H]2CN3CC[C@H]2C[C@@H]3CNS(=O)(=O)c2cccs2)nc(-c2ccncc2)n1 | 52.2 (≈ 102 µM)
Nc1c(-c2ccncc2)cc[nH]c1=O | 11.8 (≈ 63.1 µM)
O=C1c2ccccc2-n2c1nc1ccccc1c2=O | 8.45 (≈ 34 µM)
O=c1cc(CSc2ccc(Cl)cc2)nc(-c2ccccn2)[nH]1 | 1.18 (≈ 3.58 µM)
O=C(N/N=C/c1ccc(Sc2ccccn2)o1)c1ccncc1 | > 48
Cc1ccc(NC(=O)c2cc(-c3ccc(C)o3)nc3ccccc23)nc1 | < 1
Cc1cc(F)c(C(=O)Nc2cccc(-c3nncn3C(C)C)n2)cc1-n1cnc(C2CC2)c1 | 49.8 (≈ 112 µM)
CNc1nc2c(s1)C(c1ccc(Cl)cc1)CC(=O)N2 (configuration not stated) | 10.8 (≈ 36.6 µM)
COc1cc(C(=O)Nc2nc(-c3ccccc3)cs2)ccc1NS(=O)(=O)c1ccc(C)cc1 | < 1
Cc1ccc(S(=O)(=O)Nc2cnccc2C(=O)Nc2nc(-c3ccc(C)c(C)c3)cs2)cc1 | < 1
Cc1ccc(-c2cc(C(=O)Nc3ccc(-n4cccn4)cc3)c3ccccc3n2)cc1C | < 1
COc1ccccc1Nc1ccnc(N2CCN(C(=O)c3ccc(F)cc3)CC2)n1 | 10.8 (≈ 26.5 µM)
CCN1CCN(c2ccc3cc(S(=O)(=O)N4CCOCC4)ccc3n2)CC1 | > 58
COc1ccc(Nc2ncnc3c2cnn3-c2ccc(C)cc2)cc1Cl | 0.075 (≈ 0.205 µM)
Cc1cc(SCc2sc(-c3ccc(C(F)(F)F)cc3)nc2C)ccc1OCC(=O)O | > 67

Compound | solubility kinetic [µg/mL]
Cc1ccc(S(=O)(=O)Nc2ccc(F)cc2C(=O)Nc2nc(-c3ccccc3)cs2)cc1 | < 1
Cc1cc(C)cc(C(=O)Nc2ccc3c(N4CCCC4)ncnc3c2)c1 | < 1
COc1cc2ncnc(Nc3ccc(Oc4ccccc4)cc3)c2cc1OC | < 1
Cc1cnc(-c2ccccc2C2CC2)nc1NCc1ccc(-c2cccnc2)cc1 | < 1
CCOC(=O)NNc1ccc(N(CC)CC(C)O)nn1 (configuration not stated) | 4.72 (≈ 16.7 µM)
Cc1cccc(-n2cnc3cc(C(=O)N4CCC(Br)CC4)ccc32)c1 | 35.2 (≈ 88.3 µM)
Cc1ccc(S(=O)(=O)Nc2ccncc2C(=O)Nc2nc(-c3ccccc3)cs2)cc1 | < 1
CC(C)c1ccccc1-c1ncc(F)c(NC(C)(C)c2ccc(-n3ccnn3)cc2)n1 | 1.14 (≈ 2.74 µM)
Fc1cccc(-c2ccc(Nc3nc(-c4ccncc4)nc4ccccc34)cc2F)c1 | < 1
Brc1ccccc1-c1nc(NCc2ccc(-c3cccnc3)cc2)c2ccccc2n1 | < 1
C[C@@H]1CN(CC(=O)N2CC(C)(C)c3ncc(Cc4ccc(F)cc4)cc32)[C@@H](CN2CCOC[C@H]2C)CN1 | > 75
O=C(Nc1nc(-c2ccccc2)cs1)c1ccncc1NS(=O)(=O)c1cccc2cccnc12 | 39.8 (≈ 81.6 µM)
CCOc1ccc(S(=O)(=O)NCc2cccnc2)cc1NC(=O)c1ccccc1F | < 1
CN1CCN(c2ccc(Nc3c4ccccc4nc4ccccc34)cc2)CC1 | > 54
Fc1ccc(Nc2cc(-c3ccccc3)nc(-c3ccncc3)n2)cc1F | < 1
CCOc1ccc(/C=C/c2nc3ccccc3n2S(=O)(=O)c2ccc(Br)cc2)cc1 | 0.131 (≈ 0.271 µM)
O=[N+]([O-])c1ccc(/C=N/n2c(CO)nc3ccccc32)s1 | < 1
Cc1noc(C)c1-c1ccc2ncnc(NC(C)c3ccccc3)c2c1 (configuration not stated) | 12.6 (≈ 36.7 µM)
O=S(=O)(Nc1ccc2ccccc2c1)c1ccc(NCc2cccc(Cl)c2O)cc1 | < 1
Cc1nn(CCc2nc(-c3ccc4ccccc4c3)cs2)c2[nH]c(=O)cc(C(F)(F)F)c12 | < 1
O=C(Nc1nc(-c2ccccc2)cs1)c1ccncc1NS(=O)(=O)c1ccc2c(c1)CCC2 | 5.8 (≈ 12.2 µM)
COc1ccc2c(c1)CCc1c-2n[nH]c1C(=O)N1CCc2c(nc3cc(-c4ccccc4)[nH]n3c2=O)C1 | < 1
Cc1ccccc1C(C(=O)NC1CCCC1)N(C(=O)Cn1cnc2ccccc21)c1cccc(F)c1 (configuration not stated) | 12.2 (≈ 25.1 µM)
NC(CO)(CO)CCc1ccc(Sc2cccc(OCc3ccccc3)c2)cc1Cl | < 1
Cc1ccc(SC2=NS(=O)(=O)c3ccccc32)c(C)c1 | < 1

Compound | solubility kinetic [µg/mL]
C/C(=N\NC(N)=S)C1=CCC2C3CC[C@H]4CC(O)CC[C@]4(C)C3CC[C@]12C (some centres not stated) | < 1
Cc1ccc(C(=O)Nc2nc(-c3ccccn3)cs2)cc1S(=O)(=O)N1CCOCC1 | 7.21 (≈ 16.2 µM)
CCc1ccc(NC(=O)[C@H](Cc2c[nH]c3ccccc23)NC(=O)[C@@H]2Cc3ccccc3CN2)cc1 | 3.49 (≈ 7.48 µM)
COc1ccc(C(=O)NC2CCN(c3cnn(CC4CC4)c(=O)c3)CC2)c(OC)n1 | > 41
CCC(C)C1NC(=O)C2CCCN2C(=O)C(CC(C)C)OC(=O)CCNC(=O)C(C)N(C)C(=O)C(C(C)C)N(C)C1=O (configuration not stated) (cyclo([ξLac(3-iPr)]PI[NMeV][NMeA][βAla]); configuration not given here) | 2.68 (≈ 4.52 µM)
CCN(CC)S(=O)(=O)c1ccc(N2CCCC2)c(NS(=O)(=O)c2ccccc2)c1 | < 1
N#Cc1ccccc1Nc1ncc(-c2cccc3ccccc23)o1 | < 1
NC(=O)C1CCN(c2ncc(Br)s2)CC1 | 32.3 (≈ 111 µM)
CC1=C(C(=O)NCc2ccccc2)C(c2ccccc2Br)N=C(Nc2nc3ccccc3o2)N1 (configuration not stated) | < 1
O=C(Nc1ncc(Cc2ccc(C(F)(F)F)cc2)s1)c1cnc(-c2ccccc2)s1 | < 1
COc1ccc(-c2csc(CCn3nc(C)c4c(C(F)(F)F)cc(=O)[nH]c43)n2)cc1 | < 1
Oc1ccc2[nH]cc(CCCCN3CC=C(c4ccccc4)CC3)c2c1 | 42.4 (≈ 122 µM)
Cc1ccc(N2CCN(c3cnn(-c4nc5ccccc5s4)c(=O)c3Cl)CC2C)cc1 (configuration not stated) | < 1
COc1ccc(-n2nc(C3CCCN(C(=O)c4ccccc4F)C3)[nH]c2=O)cc1 (configuration not stated) | 37.3 (≈ 94.1 µM)
CC(C)(C)C(O)C(Oc1ccc(Cl)cc1)n1cncn1 (configuration not stated) | > 44
Cc1ccc(S(=O)(=O)Nc2cc(C(=O)Nc3nc(-c4ccccc4)cs3)ccc2Cl)cc1 | < 1
COc1cccc(CNc2ccc(S(=O)(=O)Nc3ncccn3)cc2)c1O | > 57
c1ccc(-c2nnc3n2NC(c2ccc4c(c2)OCO4)S3)cc1 (configuration not stated) | 1.56 (≈ 4.82 µM)
OCCOCCN1CCN(C(c2ccccc2)c2ccc(Cl)cc2)CC1 (configuration not stated) | > 55
CCN1CCC(N(Cc2ccc3c(c2)OCO3)C(=O)Nc2cc(Cl)ccc2C(=O)OC)CC1 | 58.5 (≈ 123 µM)
CC(=O)Nc1ccc(NC(=O)C(NS(=O)(=O)c2ccc(Br)s2)c2ccccc2)cc1 (configuration not stated) | < 1
COc1c(C)cc(NC(=O)c2nn(Cc3ccc(F)cc3)c3c2CN(C(=O)c2ccc[nH]2)C[C@]3(C)C(N)=O)cc1C | < 1

Reference: PubChem BioAssay AID1645848
